According to patent publication US9546173B2 (Novartis AG, priority 2012, dated 2017):

What follows are molecules tested against activated ERK2 (Homo sapiens (Human), UniProt P28482) (assay: Activated ERK2 kinase assay (AlphaScreen, ERKtide peptide phosphorylation)). Settings: […] ERK2, 200 nM ERKtide peptide, 35 μM ATP, 30 min preincubation; read-out: ERK2 IC50.
Type: biochemical
Description: Production of Activated ERK2 Protein:
Activated ERK2 protein was generated in insect cells by co-expression with a constitutively active form of MEK1. The ERK2 protein was expressed and purified as a nHis-PreScission-ERK2 tagged protein and then proteolytically processed to the full-length wild-type protein. […] Double-phosphorylated ERK2 protein was purified from the mixture by mono-Q column separation.
Activated ERK2 Kinase Assay:
A 16-point, half-log dilution series of compounds at 41× final concentration was used for generating IC50 curves. Compound dilution series were prepared in 100% DMSO. ERK2 was preincubated with compounds for 30 minutes at ambient temperature. Reaction was initiated by addition of a substrate cocktail of ERKtide peptide and ATP and was allowed to proceed for 2-3 hours at ambient temperature. Reaction was terminated by addition of 10 μL of a 2× stop buffer consisting of 100 mM Tris-Cl [pH 7.5], 25 mM EDTA, 0.01% Tween 20, 10 μg/mL of AlphaScreen Protein A Acceptor Beads, 10 μg/mL of Streptavidin Donor Beads (PerkinElmer, Waltham, Mass.), and 1.4 μg/mL phospho-EGF Receptor (Thr669) antibody (Cat #3056, Cell Signaling Technology, Danvers, Mass.). Terminated reactions were read, after overnight incubation in the dark, on an EnVision Multilabel Plate Reader (PerkinElmer, Waltham, Mass.), with excitation and emission wavelengths set to 680 nm and 570 nm, respectively. IC50 values were determined using a four-parameter fit.

Sequence of activated ERK2 (P28482 whole entry): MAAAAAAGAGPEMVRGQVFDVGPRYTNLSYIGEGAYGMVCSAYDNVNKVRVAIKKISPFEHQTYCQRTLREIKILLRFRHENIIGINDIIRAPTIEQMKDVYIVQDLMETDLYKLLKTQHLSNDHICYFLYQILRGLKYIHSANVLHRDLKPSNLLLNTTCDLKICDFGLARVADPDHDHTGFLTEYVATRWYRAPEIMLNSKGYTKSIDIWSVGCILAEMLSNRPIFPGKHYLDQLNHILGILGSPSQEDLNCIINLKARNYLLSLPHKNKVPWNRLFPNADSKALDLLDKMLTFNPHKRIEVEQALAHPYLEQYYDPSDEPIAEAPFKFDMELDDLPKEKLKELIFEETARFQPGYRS

IC50 [nM] | SMILES
839 | CC1(C)c2cnc(N[C@H]3C[C@H](O)C3)nc2CN1C(=O)N[C@H](CO)c1ccccc1 [compound 59, N-((S)-2-hydroxy-1-phenylethyl)-2-(((1r,3S)-3-hydroxycyclobutyl)amino)-5,5-dimethyl-5H-pyrrolo[3,4-d]pyrimidine-6(7H)-carboxamide]
82 | CC1(C)c2cnc(N[C@H]3CC[C@H](O)CC3)nc2CN1C(=O)N[C@H](CO)c1ccccc1 [compound 60, N-((S)-2-hydroxy-1-phenylethyl)-2-(((1r,4S)-4-hydroxycyclohexyl)amino)-5,5-dimethyl-5H-pyrrolo[3,4-d]pyrimidine-6(7H)-carboxamide]
21000 | CN1CCC(Nc2ncc3c(n2)CN(C(=O)N[C@H](CO)c2ccccc2)C3(C)C)CC1 [compound 61, (S)-N-(2-hydroxy-1-phenylethyl)-5,5-dimethyl-2-((1-methylpiperidin-4-yl)amino)-5H-pyrrolo[3,4-d]pyrimidine-6(7H)-carboxamide]
896 | CC1(C)c2cnc(N[C@H]3CC[C@@H](O)CC3)nc2CN1C(=O)N[C@H](CO)c1ccccc1 [compound 62, N-((S)-2-hydroxy-1-phenylethyl)-2-(((1s,4R)-4-hydroxycyclohexyl)amino)-5,5-dimethyl-5H-pyrrolo[3,4-d]pyrimidine-6(7H)-carboxamide]
3560 | CC(=O)N1CC[C@H](Nc2ncc3c(n2)CN(C(=O)N[C@H](CO)c2ccccc2)C3(C)C)C1 [compound 63, 2-(((S)-1-acetylpyrrolidin-3-yl)amino)-N-((S)-2-hydroxy-1-phenylethyl)-5,5-dimethyl-5H-pyrrolo[3,4-d]pyrimidine-6(7H)-carboxamide]
740 | CC(=O)N1CC[C@@H](Nc2ncc3c(n2)CN(C(=O)N[C@H](CO)c2ccccc2)C3(C)C)C1 [compound 64, 2-(((R)-1-acetylpyrrolidin-3-yl)amino)-N-((S)-2-hydroxy-1-phenylethyl)-5,5-dimethyl-5H-pyrrolo[3,4-d]pyrimidine-6(7H)-carboxamide]
8830 | COC(=O)N1CC[C@H](Nc2ncc3c(n2)CN(C(=O)N[C@H](CO)c2ccccc2)C3(C)C)C1 [compound 65, (S)-methyl 3-((6-(((S)-2-hydroxy-1-phenylethyl)carbamoyl)-5,5-dimethyl-6,7-dihydro-5H-pyrrolo[3,4-d]pyrimidin-2-yl)amino)pyrrolidine-1-carboxylate]
30 | COC(=O)N1CC[C@@H](Nc2ncc3c(n2)CN(C(=O)N[C@H](CO)c2ccccc2)C3(C)C)C1 [compound 66, (R)-methyl 3-((6-(((S)-2-hydroxy-1-phenylethyl)carbamoyl)-5,5-dimethyl-6,7-dihydro-5H-pyrrolo[3,4-d]pyrimidin-2-yl)amino)pyrrolidine-1-carboxylate]
68 | CO[C@H]1CC[C@H](Nc2ncc3c(n2)CN(C(=O)N[C@H](CO)c2ccccc2)C3(C)C)CC1 [compound 67, N-((S)-2-hydroxy-1-phenylethyl)-2-(((1r,4S)-4-methoxycyclohexyl)amino)-5,5-dimethyl-5H-pyrrolo[3,4-d]pyrimidine-6(7H)-carboxamide]
450 | CC(=O)N1CC2C(C1)C2Nc1ncc2c(n1)CN(C(=O)N[C@H](CO)c1ccccc1)C2(C)C (stereo partly drawn) [compound 68, 2-((3-acetyl-3-azabicyclo[3.1.0]hexan-6-yl)amino)-N-((S)-2-hydroxy-1-phenylethyl)-5,5-dimethyl-5H-pyrrolo[3,4-d]pyrimidine-6(7H)-carboxamide]
5580 | CC(=O)N1CC(Nc2ncc3c(n2)CN(C(=O)N[C@H](CO)c2ccccc2)C3(C)C)C1 [compound 69, (S)-2-((1-acetylazetidin-3-yl)amino)-N-(2-hydroxy-1-phenylethyl)-5,5-dimethyl-5H-pyrrolo[3,4-d]pyrimidine-6(7H)-carboxamide]
932 | CC1(C)c2cnc(NC3CCS(=O)(=O)C3)nc2CN1C(=O)N[C@H](CO)c1ccccc1 (stereo partly drawn) [compound 70, 2-((1,1-dioxidotetrahydrothiophen-3-yl)amino)-N-((S)-2-hydroxy-1-phenylethyl)-5,5-dimethyl-5H-pyrrolo[3,4-d]pyrimidine-6(7H)-carboxamide]
114 | CC1(C)c2cnc(N[C@H]3CC[C@H](C#N)CC3)nc2CN1C(=O)N[C@H](CO)c1ccccc1 [compound 81, 2-(((1r,4S)-4-cyanocyclohexyl)amino)-N-((S)-2-hydroxy-1-phenylethyl)-5,5-dimethyl-5H-pyrrolo[3,4-d]pyrimidine-6(7H)-carboxamide]
208 | CN1CCC(Nc2ncc3c(n2)CN(C(=O)N[C@H](CO)c2ccccc2)C3(C)C)CC1=O (stereo partly drawn) [compound 82, N-((S)-2-hydroxy-1-phenylethyl)-5,5-dimethyl-2-((1-methyl-2-oxopiperidin-4-yl)amino)-5H-pyrrolo[3,4-d]pyrimidine-6(7H)-carboxamide]
1160 | CN1CCC(Nc2ncc3c(n2)CN(C(=O)N[C@H](CO)c2ccccc2)C3(C)C)CC1=O (stereo partly drawn) [compound 83, N-((S)-2-hydroxy-1-phenylethyl)-5,5-dimethyl-2-((1-methyl-2-oxopiperidin-4-yl)amino)-5H-pyrrolo[3,4-d]pyrimidine-6(7H)-carboxamide]
164 | CN1CC(Nc2ncc3c(n2)CN(C(=O)N[C@H](CO)c2ccccc2)C3(C)C)CCC1=O (stereo partly drawn) [compound 84, N-((S)-2-hydroxy-1-phenylethyl)-5,5-dimethyl-2-((1-methyl-6-oxopiperidin-3-yl)amino)-5H-pyrrolo[3,4-d]pyrimidine-6(7H)-carboxamide]

Continued, molecule first:

SMILES | IC50 [nM]
COCCNc1ncc2c(n1)CN(C(=O)N[C@H](CO)c1ccccc1)C2(C)C [compound 57, (S)-N-(2-hydroxy-1-phenylethyl)-2-((2-methoxyethyl)amino)-5,5-dimethyl-5H-pyrrolo[3,4-d]pyrimidine-6(7H)-carboxamide] | 3480
CC1(C)c2cnc(NCCC#N)nc2CN1C(=O)N[C@H](CO)c1ccccc1 [compound 58, (S)-2-((2-cyanoethyl)amino)-N-(2-hydroxy-1-phenylethyl)-5,5-dimethyl-5H-pyrrolo[3,4-d]pyrimidine-6(7H)-carboxamide] | 1530
Cn1ccc(Nc2ncc3c(n2)CN(C(=O)N[C@H](CO)c2ccccc2)C3(C)C)n1 [compound 71, (S)-N-(2-hydroxy-1-phenylethyl)-5,5-dimethyl-2-((1-methyl-1H-pyrazol-3-yl)amino)-5H-pyrrolo[3,4-d]pyrimidine-6(7H)-carboxamide] | 2550
CC1(C)c2cnc(NCC3CCCCO3)nc2CN1C(=O)N[C@H](CO)c1ccccc1 (stereo partly drawn) [compound 72, N-((S)-2-hydroxy-1-phenylethyl)-5,5-dimethyl-2-(((tetrahydro-2H-pyran-2-yl)methyl)amino)-5H-pyrrolo[3,4-d]pyrimidine-6(7H)-carboxamide] | 5310
CC(Nc1ncc2c(n1)CN(C(=O)N[C@H](CO)c1ccccc1)C2(C)C)C1CCCO1 (stereo partly drawn) [compound 73, N-((S)-2-hydroxy-1-phenylethyl)-5,5-dimethyl-2-((1-(tetrahydrofuran-2-yl)ethyl)amino)-5H-pyrrolo[3,4-d]pyrimidine-6(7H)-carboxamide] | 315
CC(C)Nc1ncc2c(n1)CN(C(=O)N[C@H](CO)c1ccccc1)C2(C)C [compound 74, (S)-N-(2-hydroxy-1-phenylethyl)-2-(isopropylamino)-5,5-dimethyl-5H-pyrrolo[3,4-d]pyrimidine-6(7H)-carboxamide] | 122
CC1(C)c2cnc(NCC3CCCO3)nc2CN1C(=O)N[C@H](CO)c1ccccc1 (stereo partly drawn) [compound 75, N-((S)-2-hydroxy-1-phenylethyl)-5,5-dimethyl-2-(((tetrahydrofuran-2-yl)methyl)amino)-5H-pyrrolo[3,4-d]pyrimidine-6(7H)-carboxamide] | 2640
O=C(NCc1ccc(Cl)cc1)N1Cc2nc(NC3CCOCC3)ncc2C12CCC2 [compound 76, N-(4-chlorobenzyl)-2′-((tetrahydro-2H-pyran-4-yl)amino)spiro[cyclobutane-1,5′-pyrrolo[3,4-d]pyrimidine]-6′(7′H)-carboxamide] | 31
O=C(N[C@H](CO)c1ccccc1)N1Cc2nc(NC3CCOCC3)ncc2C12CCC2 [compound 77, (S)-N-(2-hydroxy-1-phenylethyl)-2′-((tetrahydro-2H-pyran-4-yl)amino)spiro[cyclobutane-1,5′-pyrrolo[3,4-d]pyrimidine]-6′(7′H)-carboxamide] | 13
CCC1(C)c2cnc(NC3CCOCC3)nc2CN1C(=O)NCc1ccc(Cl)cc1 (stereo not shown) [compound 78, N-(4-chlorobenzyl)-5-ethyl-5-methyl-2-((tetrahydro-2H-pyran-4-yl)amino)-5H-pyrrolo[3,4-d]pyrimidine-6(7H)-carboxamide] | 22
CC[C@@]1(C)c2cnc(NC3CCOCC3)nc2CN1C(=O)N[C@H](CO)c1ccccc1 [compound 79, (S)-5-ethyl-N-((S)-2-hydroxy-1-phenylethyl)-5-methyl-2-((tetrahydro-2H-pyran-4-yl)amino)-5H-pyrrolo[3,4-d]pyrimidine-6(7H)-carboxamide] | 971
CC[C@]1(C)c2cnc(NC3CCOCC3)nc2CN1C(=O)N[C@H](CO)c1ccccc1 [compound 80, (R)-5-ethyl-N-((S)-2-hydroxy-1-phenylethyl)-5-methyl-2-((tetrahydro-2H-pyran-4-yl)amino)-5H-pyrrolo[3,4-d]pyrimidine-6(7H)-carboxamide] | 22
